This is an account of results in article PMC5960634 (Biochemical pharmacology, 2018).

Counter-ions that a name gives are not always drawn.

The target of data set [1] is T1, recombinant full length human estrogen receptor alpha (ERα) (Homo sapiens, UniProt P03372). The data set is described as follows: [3H]-ketamine saturation radioligand binding assay. The following applies: read-out: KD of [3H]-ketamine binding to ERα (saturation binding); nine concentrations of [3H]-ketamine, 4 nM to 400 nM; non-linear regression.
T1 sequence (P03372 whole entry): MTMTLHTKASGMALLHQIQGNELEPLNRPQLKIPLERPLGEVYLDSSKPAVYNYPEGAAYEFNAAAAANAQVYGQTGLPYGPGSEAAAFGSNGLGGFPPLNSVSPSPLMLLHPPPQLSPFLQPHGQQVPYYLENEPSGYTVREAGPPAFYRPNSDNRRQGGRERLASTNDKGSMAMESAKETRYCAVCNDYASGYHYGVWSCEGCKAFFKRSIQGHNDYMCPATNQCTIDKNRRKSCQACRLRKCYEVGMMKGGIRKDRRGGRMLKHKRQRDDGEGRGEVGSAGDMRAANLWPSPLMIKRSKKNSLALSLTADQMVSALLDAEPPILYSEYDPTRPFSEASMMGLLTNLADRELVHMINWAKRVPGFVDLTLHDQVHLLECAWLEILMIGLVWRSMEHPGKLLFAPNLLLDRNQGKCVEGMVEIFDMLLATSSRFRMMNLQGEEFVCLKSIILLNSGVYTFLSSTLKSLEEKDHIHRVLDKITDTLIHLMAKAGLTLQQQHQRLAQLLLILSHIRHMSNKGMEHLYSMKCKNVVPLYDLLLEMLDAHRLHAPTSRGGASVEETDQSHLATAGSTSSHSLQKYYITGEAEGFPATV
In data set [2] the target is T1, recombinant full length human estrogen receptor alpha (ERα). The data set is described as follows: [3H]-ketamine displacement assay. The data set is classed as binding.
For data set [3] the following is noted: brains of female than in male mice; cited from earlier work.
The target of data set [4] is T1, recombinant full length human estrogen receptor alpha (ERα). Conditions: 1 nM [3H]-estradiol; competitor 4 nM - 40 mM.

With `CNC1(c2ccccc2Cl)CCCCC1=O` (racemic) [[^3H]-ketamine, (±)-Ketamine [N-methyl-^3H] hydrochloride], the Kd in data set [1] is 344 nM. Regarding `N[C@@]1(c2ccccc2Cl)CCC[C@@H](O)C1=O` [(2R,6R)-HNK], the half-maximal inhibitory concentration (IC50) in data set [2] is 3400 ± 200 nM. As for `N[C@]1(c2ccccc2Cl)CCC[C@H](O)C1=O` [(2S,6S)-HNK], in data set [2], the IC50 was found to be 3530 ± 200 nM. With `N[C@@]1(c2ccccc2Cl)CCC[C@@H](O)C1=O` [(2S,6S;2R,6R)-HNK, (2S,6S;2R,6R)-hydroxynorketamine], the “brain concentrations, female versus male mice” value in data set [3] was “three fold higher”. On to `CNC1(c2ccccc2Cl)CCCCC1=O` (stereo not drawn) [ketamine, Ketamine hydrochloride], for which the half-inhibitory concentration (IC50) in data set [2] stood at 2310 ± 100 nM. Also, in data set [4], the “displacement of [3H]-estradiol binding to ERα (in words)” value is given as “failed to displace”.

In general, IC50 refers to the concentration that inhibits the measured activity by half.
